US11624748B2, “Methods and compositions for the identification of epithelial to mesenchymal breast cancer” (Tuskegee University, priority 2019, dated 2023)

What was measured:
[1] = test system: EMT phenotypic cells (MCF-7/TGFβ, MDA-MB-231 and T47D-shNMI); test: phage capture assay; type: cell-based, human; conditions: for selectivity for EMT phenotypic cells: MDA-MB-231 and T47D-shNMI, selective = at least five times higher relative binding
Text: (§1) Individual phage clones were characterized for their selectivity toward EMT cells, MCF-7/TGFβ and MDA-MB-231 breast cancer cells in comparison with epithelial breast cancer cells, MCF-7, T47D, and breast fibroblasts using phage capture assay and cell-based ELISA.
(§2) In phage capture assay, briefly, target cells MCF-7/TGFβ, MDA-MB-231, MCF-7, T47D, T47D-shNMI and breast fibroblasts were cultivated in triplicate to confluence in separate wells of 12-well cell culture plates. The medium with serum was incubated in separate wells in triplicate as a control. Cells were incubated with phage (1×10^10 pfu) at RT for 1 h. Unbound phages were carefully removed and cells were washed with 100 μl washing buffer for 5 min eight times to remove non-specifically interacting phages. Cells were lysed with […] (2.5% CHAPS) for 10 min on a rocker. The lysate containing cell-interacting phages was titered in E. coli ER2738 bacterial cells. Phage recovery was calculated as a ratio of output to input phage.

[2] = test system: EMT cells (MCF-7/TGFβ, MDA-MB-231, T47D-shNMI); test: phage based-ELISA (cell-based ELISA); set-up: species or system human; conditions: 10^10 PFU, 1 hour at RT
Experimental: as §1
Confluent monolayers of MCF-7/TGFβ, MDA-MB-231, MCF-7, T47D, T47D-shNMI and breast fibroblasts cells were incubated at room temperature with individual phage clones (10^10 PFU), for 1 hour at RT. Subsequently, cells were washed with PBS containing 0.1% Tween-20, incubated with primary anti-M13-biotin antibody (1:1000), for 1 h, at RT. Cells were washed again with PBS containing 0.1% Tween-20, incubated with secondary antibody streptavidin-HRP (1:2000, 45 min, RT), developed with tetra methyl benzidine and read at absorbance 650 with microplate reader (BioTek).

activated fibroblasts = test: phage capture assay of phage binding to cancer-conditioned media activated fibroblasts; type: cell-based, human
Experimental: as §2
Breast fibroblasts were plated in a 12.5 cm flask cultured until approximately 70% confluent. Once properly confluent, fibroblasts were then cultured in MDA-MB-231 conditioned media or normal fibroblasts media for 72 hours. Thereafter, they were exposed to E11 phage (10^8 pfu) for 2 hours and analyzed for binding in phage capture assay as described above.

heat shock protein HSPD1 = molecular target: T1, heat shock protein HSPD1 (Homo sapiens, UniProt P10809); test: biotinylated phage pulldown of receptor protein from MDA-MB-231; type: binding; conditions: pulldown from MDA-MB-231
T1 construct: endogenous in cells; host or cells: MDA-MB-231 human breast cancer cells
T1 sequence (P10809 27-573): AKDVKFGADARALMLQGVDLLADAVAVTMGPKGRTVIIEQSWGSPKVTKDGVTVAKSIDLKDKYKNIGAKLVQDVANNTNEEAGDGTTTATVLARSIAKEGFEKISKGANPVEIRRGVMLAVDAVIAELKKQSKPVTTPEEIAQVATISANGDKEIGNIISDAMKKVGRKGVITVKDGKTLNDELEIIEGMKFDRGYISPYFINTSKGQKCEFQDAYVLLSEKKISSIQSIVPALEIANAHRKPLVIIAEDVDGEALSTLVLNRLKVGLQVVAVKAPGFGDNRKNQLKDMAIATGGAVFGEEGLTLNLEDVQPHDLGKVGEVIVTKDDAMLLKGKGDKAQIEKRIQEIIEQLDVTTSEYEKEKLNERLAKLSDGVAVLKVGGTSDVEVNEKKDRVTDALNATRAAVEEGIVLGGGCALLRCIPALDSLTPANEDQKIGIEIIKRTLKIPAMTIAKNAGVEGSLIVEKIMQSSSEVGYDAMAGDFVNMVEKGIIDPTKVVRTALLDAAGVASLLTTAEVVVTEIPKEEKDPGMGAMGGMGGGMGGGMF
Experimental: The biotinylated phage immobilizes the receptor protein. The Dynal magnetic beads are then functionalized with streptavidin. […] To visualize the protein, the SDS-page gel was treated with silver nitrate staining. FIG. 9B discloses SEQ ID NO: 26. FIG. 9 C provides the sequence of Heat shock protein (HSPD1), mitochondrial n=2 Tax=Homo sapiens RepID=CH60_HUMAN 5 exclusive unique peptides, 5 exclusive unique spectra, 8 total spectra, 48/573 amino acids (8% coverage). FIG. 9C discloses SEQ ID NO: 27.

[3] = test system: human breast cancer tissue microarray; test: ex vivo phage binding to human breast cancer tissue microarray; conditions: for immunostaining for phage in invasive ductal breast cancer carcinoma: invasive ductal carcinoma sections, 10^10 pfu overnight; for binding in normal breast tissues: normal breast tissue
Experimental: FIG. 7A-7E presents results of ex vivo phage binding to a human breast cancer tissue microarray. Tissue microarray of invasive ductal carcinoma and adjacent normal tissues were incubated with 1010 pfu of LGLRGSL phage (SEQ ID NO: 1) or Vimentin antibody and then subsequently with M13-pIII antibody for phage and secondary peroxidase antibody for phage and Vimentin, imaged with a digital light microscope.
The breast tissue microarrays were obtained from Novus Biological (Littleton, Colo.). These include 40 breast cancer infiltrating ductal carcinoma, 10 metastatic lymph node and 9 adjacent normal breast tissues. The use of tissue was approved by the Institutional Review Board of Tuskegee University. Clinico-histopathologic characteristics of the subjects in the tissue microarray study included age, grade, hormone status and clinical stage, according to information provided by the suppliers. The expression levels were classified as negative (≤0.3), weak positive (0.3 to 1.5), or strong positive (≥1.5). Tissues were de-paraffinized in xylene and rehydrated in graded alcohols. For antigen retrieval the slides were pressure-cooked for 10 minutes. Endogenous peroxidase activity was quenched with 3% hydrogen peroxide for 5 minutes. vSlides were treated with LGLRGSL phage (SEQ ID NO: 1) (10^10 pfu) overnight. Slides were subsequently washed and blocked by 3% goat serum at room temperature for 1 hour in humidity chambers. Slides were then treated with M13-pIII phage monoclonal antibody (NEB, MA) or Vimentin antibody (Cell Siganling, Danvers, Mass.) (1:100). The HRP conjugated goat anti-mouse secondary antibody (Jackson Immunoresearch Laboratories Inc, West Grove, Pa.) was applied for 40 minutes. The antigen-antibody reaction was visualized after diaminobenzidine (Sigma-Aldrich, MO) was applied for 7 minutes. The slides were counterstained with hematoxylin (Sigma-Aldrich, MO) for 1 minute. Positive controls were included in each staining run; negative controls were obtained by omitting the primary antibody. Slides were then dehydrated in alcohols and cleared in three xylene baths before being mounted with Permount media.

MCF-7 cells = test: immunofluorescence microscopy of phage binding; type: cell-based, human; conditions: 10^8 pfu, RT 1 hr
Experimental: (§3) MCF-7, MCF-7/TGFβ, MDA-MB-231 and Hs578T (breast fibroblasts) cells were seeded in a 4-well chamber overnight. On the next day, cells were fed with fresh medium. LGLRGSL (SEQ ID NO: 1) (E11) (10^8 pfu) was added in fresh medium and incubated at RT for one hour. After removing the unbound phages, cells were washed with wash buffer (0.1% tween-20 in PBS) three times and fixed with 4% formaldehyde for 15 minutes at 37° C. Cells were permeabilized with 0.2% Triton X-100 at RT for 10 minutes. Reagent was removed and cells were washed with TBS 3 times. Before incubation with anti-phage antibody, cells were treated with blocking buffer for 30 minutes at RT. Cells were incubated with M13-pIII monoclonal antibody for 1 hour at RT, washed and incubated with the secondary goat anti-mouse IgG antibody labeled with Alexa Flour® 488 (Molecular Probes) at a dilution of 1:500 in PBS containing 1% BSA for 45 minutes at RT. Cells were washed three times after secondary antibody treatment. TOTO-3 was used for nucleus staining. Cells were covered with cover slides with Prolong Gold Anti-fade Reagents. Nail polish was used to seal the slide. Pictures were taken by using the NIKON eclipse TE 2000-E confocal microscope.
(§4) To further confirm the specificity of LGLRGSL (SEQ ID NO: 1) (E11) towards breast cancer cells with an EMT phenotype, immunofluorescence microscopy of intact cells (MCF-7/TGF β and MDA-MB-231), and control MCF-7 breast cancer cells and breast fibroblasts (Hs578T) were used. All cells were treated with the phage (10^8 pfu) at RT for 1 hr, and subsequently incubated with primary anti-pIII antibody and then stained with secondary anti-mouse Alexa fluor 488 secondary antibody. […] No background antibody was observed as shown in the respective controls of cells treated with just primary and secondary antibodies.

[4] = test system: breast fibroblasts (Hs578T); test: immunofluorescence microscopy of phage binding; type: cell-based, human; conditions: 10^8 pfu, RT 1 hr
Experimental: as §3, §4

MCF-7/TGFβ = test: immunofluorescence microscopy of phage binding; type: cell-based, human; conditions: 10^8 pfu, RT 1 hr
Experimental: as §3, §4

MDA-MB-231 = test: immunofluorescence microscopy of phage binding; type: cell-based, human; conditions: 10^8 pfu, RT 1 hr
Experimental: as §3, §4

GTFLFS [E32]
selectivity for EMT phenotypic cells ([1]; MCF-7/TGFβ): very selective

KGDYKLF [L42]
selectivity towards MCF-7/TGFβ, MCF-7 and breast fibroblasts ([1]; MCF-7/TGFβ, MCF-7 and breast fibroblasts): not so selective
specificity towards MDA-MB-231 cells ([1]; MDA-MB-231 cells): high specificity

LGLRGSL [E11]
selectivity towards EMT cells in phage-based ELISA [2]: confirmatory
reactivity to activated fibroblasts (activated fibroblasts; FIG. 5, FBC vs FBD): highly reactive
binding to activated-fibroblasts than normal fibroblasts (activated fibroblasts; fibroblasts in MDA-MB-231 conditioned media 72 hours vs normal fibroblast media, 10^8 pfu, 2 hours): twice as much
binding to heat shock protein HSPD1 (heat shock protein HSPD1): binds
immunostaining for phage in invasive ductal breast cancer carcinoma [3]: substantial staining
immunostaining for phage in invasive ductal breast cancer carcinoma ([3]; listed as LGLRGSL phage): Strong brown staining
staining intensity in tumors invading into adjacent lymph nodes ([3]; metastasis in lymph nodes): increased
binding in normal breast tissues [3]: no binding
binding in normal breast tissues ([3]; listed as LGLRGSL phage): no staining
staining around the invasive or leading edge of the tumor-stromal interaction ([3]; tumor cells, invasive or leading edge): robust staining
selectivity for EMT phenotypic cells ([1]; MCF-7/TGFβ): very selective
phage binding (green fluorescent phage staining) (MCF-7 cells): some staining
phage binding (green fluorescent phage staining) [4]: almost no binding
phage binding (green fluorescent phage staining) (MCF-7/TGFβ): abundant binding
phage binding (green fluorescent phage staining) (MDA-MB-231): abundant binding

PNLPWVP [E45]
selectivity for EMT phenotypic cells ([1]; MCF-7/TGFβ): very selective
